Laboratory results published in US11147786B2, “Methods of treating chronic dry eye disease using C16:1n7-palmitoleate and derivatives thereof” (Tersus Life Sciences, LLC, priority 2014, dated 2021).
Where “and” joins values, the source holds several entries; their conditions need not be identical. Equal values may be shown once. Entries after “also recorded” stand apart in the source; their conditions may differ.

How the values were obtained:
Type in all cases: in vivo, human
[1] = system: patients with moderate to severe dry eye symptoms/MGD; test: Meibomian gland dysfunction (MGD) score, Example 2; parameters: key to Day 0 MGD RE / Day 0 MGD LE / FV MGD RE / FV MGD LE: 1=meibomian glands in all 3 regions secreting/cloudy; 2=meibomian glands in 2 out of 3 regions secreting/cloudy; 3=meibomian glands in 1 out of 3 regions secreting/cloudy; 4=no observable meibomian gland secretion in any of the 3 regions; 2+ and 2,3 are used interchangeably and mean more than ⅔<1; 2+ and 2,3 are used interchangeably and mean more than ⅔<1
Source text: (§1) Twenty nine patients, each diagnosed as having moderate to severe dry eye symptoms/MGD, were selected for the study.
Patients were classified as having none, mild, or moderate meibomian gland secretion blockage by evaluating the secretion of the meibomian glands in the nasal, central, and temporal regions of the lower eyelid. MGD was scored using a 0-4 grading scale, 4 correlating with severe dysfunction. A summary of the grading scale is provided below: • 1=meibomian glands in all 3 regions secreting/cloudy • 2=meibomian glands in 2 out of 3 regions secreting/cloudy • 3=meibomian glands in 1 out of 3 regions secreting/cloudy • 4=no observable meibomian gland secretion in any of the 3 regions • 2+ and 2,3 are used interchangeably and mean more than ⅔<1.
(§2) After the initial baseline evaluation, patients received daily doses of a dietary supplement containing 210 mg of C16:1n7-palmitoleate for over 30 days.
(§3) Tear osmolarity (TL) and MGD for left and right eyes (LE and RE respectively) were scored at Day 0 (baseline evaluation) and at the follow-up visit (FV), see Table 2. A tear osmolarity score of below 308 mOsms/L is normal, 308-320 mOsms/L is mild dry eyes, 320-340 mOsms/L is moderate dry eyes, and above 340 mOsms/L is severe dry eye. The terms ‘above’ and ‘below’ refer to values above and below the detectable range of the Tearlab diagnostic device respectively. Patients also recorded their comments regarding perceived improvements of their dry eye symptoms.

[2] = system: patients with moderate to severe dry eye symptoms/MGD; test: Patient comments on perceived improvement of dry eye symptoms, Example 2; conditions: patient's comment after 210 mg daily for over 30 days; one line per patient
Experimental: as §1, §2, §3

[3] = system: patients with moderate to severe dry eye symptoms/MGD; test: Tear osmolarity (TL) in patients with dry eye symptoms/MGD, Example 2
Experimental: as §1, §2, §3

[4] = system: patients diagnosed with dry eye disease; test: Patient ranking of symptom improvement, Example 1; conditions: patient's ranking at day 30, 210 mg daily; one line per patient 1-8
Experimental: (§4) Patients diagnosed with dry eye disease (as determined by having tear osmolarity over 308 mOsms/L, which is the clinical minimum for dry eyes, per eye) were treated daily with a dietary supplement containing 210 mg of C16:1n7-palmitoleate for 30 days.
(§5) Tear osmolarity for left and right eyes were scored at day 1 and day 30, see Table 1. A tear osmolarity score of below 308 mOsms/L is normal, 308-320 mOsms/L is mild dry eyes, 320-340 mOsms/L is moderate dry eyes, and above 340 mOsms/L is severe dry eye. At day 30, patients also ranked their feeling of improvement of dry eye on a scale of 1-10, see Table 1.

[5] = system: patients diagnosed with dry eye disease; test: Tear osmolarity in patients with dry eye disease, Example 1
Experimental: as §4, §5

## CCCCCC/C=C\CCCCCCCC(=O)O [C16:1n7-palmitoleate]
[1]; MGD score 0-4 (4 severe), left eye, Day 0 baseline before treatment, one line per patient
  Day 0 MGD LE: 2 (2×) and 4 (14×) and 2+ (2×) and 3 (8×)
[1]; MGD score 0-4 (4 severe), right eye, Day 0 baseline before treatment, one line per patient
  Day 0 MGD RE: 3 (9×) and 4 (14×) and 2+ (2×) and 2
[1]; MGD score 0-4, left eye, follow-up visit after 210 mg daily for over 30 days, one line per patient
  FV MGD LE: 1 (8×) and 3 (6×) and 2 (7×) and 1, and 2+ and 4 (4×) and 0
[1]; MGD score 0-4, right eye, follow-up visit after 210 mg daily for over 30 days, one line per patient
  FV MGD RE: 1 (9×) and 3 (5×) and 2+ and 2 (6×) and 1, and 4 (5×) and 0
[1]; patients 1, 4-7, 11-13, 15-16, 20-22, 24 and 27
  MG secretion in patients with severe MGD scores initially: showed improvement in MG secretion
[2]
  Comment (perceived improvement of dry eye symptoms): great (4×) and good (19×) and poor and Better and happy (2×) and better
[3]; left eye, Day 0 baseline before treatment, one line per patient
  Day 0 TL LE: 311 mOsms/L and 307 mOsms/L (2×) and 349 mOsms/L (2×) and 312 mOsms/L and 314 mOsms/L (3×) and above (2×) and 324 mOsms/L and 339 mOsms/L and 308 mOsms/L and 364 mOsms/L (2×) and 361 mOsms/L and 317 mOsms/L (2×) and 302 mOsms/L and 326 mOsms/L and 356 mOsms/L and 320 mOsms/L and 313 mOsms/L and 358 mOsms/L and 323 mOsms/L and 327 mOsms/L
[3]; left eye, follow-up visit after 210 mg daily for over 30 days, one line per patient
  FV TL LE: 317 mOsms/L and 298 mOsms/L and 303 mOsms/L (2×) and 291 mOsms/L and 310 mOsms/L and 316 mOsms/L and 314 mOsms/L and 299 mOsms/L (2×) and 354 mOsms/L and 352 mOsms/L and 330 mOsms/L and 324 mOsms/L and 331 mOsms/L and 327 mOsms/L and 300 mOsms/L and above and 305 mOsms/L and below (2×) and 308 mOsms/L and 323 mOsms/L and 311 mOsms/L and 306 mOsms/L
[3]; right eye, Day 0 baseline before treatment, one line per patient 1-29, above/below = outside detectable range of Tearlab device
  Day 0 TL RE: 321 mOsms/L and 316 mOsms/L and 357 mOsms/L and 311 mOsms/L and 326 mOsms/L and 329 mOsms/L (2×) and 383 mOsms/L and 335 mOsms/L and below and 330 mOsms/L (2×) and 318 mOsms/L and 337 mOsms/L and 324 mOsms/L and 313 mOsms/L and 290 mOsms/L and 293 mOsms/L and 235 mOsms/L and 348 mOsms/L and 310 mOsms/L and 301 mOsms/L and 322 mOsms/L and 308 mOsms/L and 360 mOsms/L and 303 mOsms/L and 351 mOsms/L
[3]; right eye, follow-up visit after 210 mg daily for over 30 days, one line per patient
  FV TL RE: 284 mOsms/L and 302 mOsms/L (3×) and 301 mOsms/L and 295 mOsms/L and 307 mOsms/L (2×) and 304 mOsms/L and 348 mOsms/L and 354 mOsms/L and 352 mOsms/L and 345 mOsms/L and 309 mOsms/L and 314 mOsms/L and 318 mOsms/L (2×) and 355 mOsms/L and below (2×) and 294 mOsms/L and 303 mOsms/L and 308 mOsms/L and 311 mOsms/L and 235 mOsms/L
[4]
  Symptom Improvement (Scale of 1-10): 4 (2×) and 7 (2×) and 6 (2×) and 8 and 3
[5]; Day 1 (start of treatment), left eye, one line per patient 1-8, below 308 normal, 308-320 mild, 320-340 moderate, above 340 severe
  Tear Osmolarity Day 1, left eye: Left eye 294 mOsms/L; also recorded: Left eye 333 mOsms/L; also recorded: Left eye 312 mOsms/L; also recorded: Left eye 351 mOsms/L; also recorded: Left eye 322 mOsms/L; also recorded: Left eye 314 mOsms/L; also recorded: Left eye 347 mOsms/L; also recorded: Left eye 332 mOsms/L
[5]; Day 1 (start of treatment), right eye, one line per patient 1-8
  Tear Osmolarity Day 1, right eye: Right eye 362 mOsms/L; also recorded: Right eye 305 mOsms/L; also recorded: Right eye 340 mOsms/L; also recorded: Right eye 382 mOsms/L; also recorded: Right eye 325 mOsms/L; also recorded: Right eye 341 mOsms/L; also recorded: Right eye 328 mOsms/L; also recorded: Right eye 367 mOsms/L
[5]; Day 30 of daily dietary supplement with 210 mg, left eye, one line per patient 1-8
  Tear Osmolarity Day 30, left eye: Left eye 300 mOsms/L; also recorded: Left eye 302 mOsms/L; also recorded: Left eye 293 mOsms/L; also recorded: Left eye 314 mOsms/L; also recorded: Left eye 301 mOsms/L; also recorded: Left eye 308 mOsms/L; also recorded: Left eye 313 mOsms/L
[5]; Day 30 of daily dietary supplement with 210 mg, right eye, one line per patient 1-8
  Tear Osmolarity Day 30, right eye: Right eye 314 mOsms/L; also recorded: Right eye 300 mOsms/L; also recorded: Right eye 308 mOsms/L; also recorded: Right eye 302 mOsms/L; also recorded: Right eye 299 mOsms/L; also recorded: Right eye 307 mOsms/L; also recorded: Right eye 367 mOsms/L; also recorded: Right eye 310 mOsms/L
[5]; patients 1, 2, 5 and 7, 30 days of treatment
  Dry eye severity after 30 days in patients with at least one severe dry eye initially: normal or very mild dry eyes
